Results on eight molecules are retold here after patent publication US20150010475A1, “CRLF-2 BINDING PEPTIDES, PROTOCELLS AND VIRAL-LIKE PARTICLES USEFUL IN THE TREATMENT OF CANCER, INCLUDING ACUTE LYMPHOBLASTIC LEUKEMIA (ALL)” (STC. UNM, priority 2011, published 2015).

Series [1] concerns the target T1, CRLF2 (Homo sapiens, UniProt Q9HC73).
T1 construct: expressed in transfected cells
T1 sequence (Q9HC73 23-371): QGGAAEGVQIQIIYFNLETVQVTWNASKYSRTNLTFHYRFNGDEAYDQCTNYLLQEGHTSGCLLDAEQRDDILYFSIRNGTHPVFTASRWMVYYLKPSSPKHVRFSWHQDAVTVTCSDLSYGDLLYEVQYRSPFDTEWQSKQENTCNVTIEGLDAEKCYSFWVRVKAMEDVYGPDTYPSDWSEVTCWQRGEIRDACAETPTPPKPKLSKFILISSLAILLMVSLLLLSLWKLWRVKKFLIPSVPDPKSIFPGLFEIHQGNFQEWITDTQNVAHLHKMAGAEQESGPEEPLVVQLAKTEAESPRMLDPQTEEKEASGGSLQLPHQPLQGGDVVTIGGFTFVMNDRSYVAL
The series is described as follows: Flow cytometry binding of M13 phage displaying peptide to BaF3-CRLF2 cells. The note with it: for binding to CRLF2 (peptides pulled from enriched phage population): phage display selection on BaF3 cells expressing CRLF2. The procedure:
(§1) Flow cytometry is used to evaluate binding of individual phage clones within consensus sequences. In this case, a saturable binding curve can be constructed, allowing for the determination of the dissociation constant (Kd) of phage displaying potentially specific peptides that bind cells with high levels of CRLF2 expression but not parental cell lines with minimal expression.
The selections were carried out on BaF3 cells that had been induced to create the cell receptor CRLF2 and express it on their surface. Negative selections were carried out on the parental cell line (no CRLF2) in order to assure that the ligand identified was in fact binding to the desired target and not to other features on the surface of the cells.
(§2) Affinity selections on cellular targets are complicated by the heterogeneity of surface protein expression on mammalian cells, which frequently results in a large number of peptides that bind unsuitable targets. A major goal of the work we propose is to create an efficient selection/counter-selection scheme. To illustrate our strategy, the gene encoding human CRLF2 was introduced into BaF3 cells (a murine IL3-dependent pro-B cell line) and the protein's abundant surface expression was confirmed by FACS (as shown in Project 2). The resulting BaF3-CRLF2 cells, together with the BaF3 parental line (which specifically lacks CRLF2), served as a matched selection/counter-selection pair and provided a convenient means of discarding affinity selectants that bind the many non-CRLF2 receptors inevitably encountered on the BaF3 surface.
(§3) In this case, a saturable binding curve can be constructed, allowing for the determination of the disassociation constant (Kd) of phage displaying potential specific peptides that bind cells with high levels of CRLF2 expression but not parental cell lines with minimal expression. Data shown for the MTAAPVH phage clone on BaF3/CRLF2 (A) and parental BaF3 cells. (B) Binding curves were constructed by titrating the amount of phage with constant cell concentrations in order to quantitatively describe binding. Non-specific binding was determined by incubating wild-type phage with the same cell lines.
CRLF2 may be targeted using its natural ligand TSLP or with peptides that are specifically directed towards CRLF2; both approaches are being developed. […] Peptides selected by affinity for Ba-F3-CRLF2 cells were counter-selected against parental Ba-F3 cells to eliminate any phage binding receptors common to both cell types. We find that a matched selection/counter-selection pair greatly increases the specificity of the affinity selection process. It is important to note that in the VLP screening method, each VLP encapsidates its own mRNA. This means that the nucleotide sequences encoding any particular VLP and its guest peptide or protein are contained within the particle itself and can be recovered by reverse transcription and polymerase chain reaction.
(Flow cytometry measures light scatter and fluorescence of single cells or particles in a stream.)

In series [2] the test system is BaF3 parental cells. The series is described as follows: Flow cytometry binding of M13 phage displaying peptide to BaF3 parental cells. Set-up: species or system murine.
From the text: as §1, §2, §3
CRLF2 may be targeted using its natural ligand TSLP or with peptides that are specifically directed towards CRLF2; both approaches are being developed. […]

Series [3] has as its system Hep3B. The series is described as follows: Cytotoxicity of DOX, free or delivered in protocells or liposomes, in Hep3B. The note with it: as DOX. Format: cell-based. The text has this: For toxicology studies there are two major issues which must be addressed: silica loading in the tissues, derived from the mesoporous silica core of the protocell, and non-targeted or “off target” delivery of the therapeutic cargos to normal tissues. […] Nevertheless, we will systematically evaluate all major organs and tissues in treated mice for silica deposition and cellular damage after treatment with loaded and unloaded protocells. […] As a benchmark, we compared oxidative stress and cell viability of neutral, positively and negatively-charged targeted protocells with corresponding liposomes and other control particles at 10^9 particles/mL corresponding to ˜1-2 μg/mL (FIG. 24). […] In preliminary studies (FIG. 25), we also compared the IgG response of C57Bl/6 mice immunized twice with 10 μg doses of targeted and SP94-targeted protocells to that of virus-like particles (VLPs) conjugated to the same concentration of targeting peptide (MS2 SP94). […] When considering therapeutically administered doses, for the hepatocellular carcinoma cell line Hep3B, the LC50 and LC90 values of free DOX are 150 and 500 ng/mL, respectively. […] As discussed above, Si loading will be assessed by ICP-MS. […]

In series [4] the test system is MHH CALL 4, Mutz-5 and BaF3/CRLF-2 cells. The series is described as follows: Internalization of CRLF-2-targeted protocells by target cells. Format: cell-based, human. Particulars: peptide on protocell surface. The procedure: The upper-left portion of FIG. 7 depicts the internalization efficacy of CRLF-2-targeted protocells in the absence of the R8 peptide. The upper right portion of FIG. 7 presents images of CRLF-2-positive (MHH CALL 4) and CRLF-2-negative (MOLT 4) cells exposed to targeted protocells for 37° C. for two hours. N.D.=not detectable; bilayer composition=DOIDA in DSPC with 5 wt % DSPE; approximate peptide density=10 targeting peptides/protocell and ˜500 H5WYG peptides/protocell. Targeted protocells can become internalized within target cells (MHH CALL 4, Mutz-5 and BaF3/CRLF-2) over time. However, overall internalization efficiency is only ˜20%, which could lead to non-specific cytotoxicity. The lower-left portion of FIG. 7 depicts the internalization efficacy of CRLF-2-targeted protocells in the presence of the R8 peptide. The lower right portion of FIG. 7 presents images of CRLF-2-positive (MHH CALL 4) and CRLF-2-negative (MOLT 4) cells exposed to targeted protocells for 37° C. for two hours. N.D.=not detectable; bilayer composition=DOIDA in DSPC with 5 wt % DSPE; approximate peptide density=10 targeting peptides/protocell and −500 H5WYG peptides/protocell.
The upper-left portion of FIG. 8 depicts internalization kinetics for CRLF-2-targeted protocells in the absence and presence of the R8 peptide. […]

Series [5] concerns the target human CRLF2 expressed on the cell surface (BaF3-CRLF2, REH-CRLF2, MHH CALL 4, MUTZ5 cells) (human) (UniProt Q9HC73). In words: protocell binding to BaF3-CRLF2, MUTZ5 and MHHCALL4 cells, against untargeted protocells, the parental BAF3 line or CRLF2(-) NALM6 cells (FIG. 19, 20).
In series [6] the target is T2, human CRLF2 expressed on the cell surface (BaF3-CRLF2, REH-CRLF2, MHH CALL 4, MUTZ5 cells) (human), Q9HC73.
T2 chain: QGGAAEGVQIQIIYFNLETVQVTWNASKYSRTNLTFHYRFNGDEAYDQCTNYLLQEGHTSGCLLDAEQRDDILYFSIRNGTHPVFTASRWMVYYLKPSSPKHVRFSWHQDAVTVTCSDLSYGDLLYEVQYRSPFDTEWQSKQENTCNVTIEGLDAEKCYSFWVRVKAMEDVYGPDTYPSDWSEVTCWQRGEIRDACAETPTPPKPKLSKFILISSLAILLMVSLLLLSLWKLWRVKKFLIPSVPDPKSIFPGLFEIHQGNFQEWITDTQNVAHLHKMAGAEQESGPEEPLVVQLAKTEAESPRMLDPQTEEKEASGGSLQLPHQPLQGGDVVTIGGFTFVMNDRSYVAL
In words: binding of M13 phage to BaF3-CRLF2 cells (FIG. 18).

The target of series [7] is T2, human CRLF2 expressed on the cell …. In words: flow cytometry, M13 phage on BaF3-CRLF2 cells (FIG. 3).
Series [8] has as its target T3, human CRLF2 expressed on the cell surface (BaF3-CRLF2, REH-CRLF2, MHH CALL 4, MUTZ5 cells) (human, UniProt Q9HC73 23-371).
T3 construct: whole, on cells; Parental BaF3 / REH cells lack CRLF2 and served as negative controls; also called TSLP receptor; TSLPR
T3 sequence (looked up): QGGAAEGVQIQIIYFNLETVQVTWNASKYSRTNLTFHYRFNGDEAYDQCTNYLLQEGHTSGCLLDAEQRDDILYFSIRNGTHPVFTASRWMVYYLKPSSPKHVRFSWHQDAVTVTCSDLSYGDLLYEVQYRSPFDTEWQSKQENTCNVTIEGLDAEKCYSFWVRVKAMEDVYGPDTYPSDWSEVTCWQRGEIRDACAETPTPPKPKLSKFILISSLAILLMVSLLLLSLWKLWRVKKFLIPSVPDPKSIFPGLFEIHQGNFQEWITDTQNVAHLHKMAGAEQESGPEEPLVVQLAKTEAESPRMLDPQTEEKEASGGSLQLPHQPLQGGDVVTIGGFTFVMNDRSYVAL
The series is described as follows: flow cytometry, Alexa-fluor-647 labeled particles incubated 1 h with BaF3/CRLF-2 cells.

Converted amounts (≈) assume the structure as drawn. Where only a bound is given, the exact number is not on record here.

By Kd is commonly meant the constant that tells how readily two partners part at equilibrium. With TDAHASV [peptide ligand to CRLF2], the Kd was 27.9 nM in series [1] (peptide displayed on M13 phage, BaF3-CRLF2 cells) and below 3000 nM in series [2] (peptide displayed on M13 phage, read-out: Kd for the BaF3 parental line). Moreover, the “binding to CRLF2 (peptides pulled from enriched phage population)” value (shortened to “binding to CRLF2”) in series [1] was “exhibited binding to CRLF2”. Also, the “binding to the BaF3 parent” value in series [2] (peptide displayed on M13 phage) is recorded as “not showing significant binding”.

As for FSYLPSH, the “binding to CRLF2” value in series [1] is reported as “exhibited binding to CRLF2”.

For `COc1cccc2c1C(=O)c1c(O)c3c(c(O)c1C2=O)C[C@@](O)(C(=O)CO)C[C@@H]3O[C@H]1C[C@H](N)[C@H](O)[C@H](C)O1` [free DOX, doxorubicin], in series [3], the LC50 was 0.15 µg/mL (≈ 0.276 µM) and the LC90 amounted to 0.5 µg/mL (≈ 0.92 µM).

For the molecule MTAAPVH, the “Specific binding of phage clone to CRLF2 positive cells” value in series [1] (BaF3/CRLF2, non-specific binding from wild-type phage) is “significant”. In series [1], the “binding to CRLF2” value is “best binder”. In addition, the “Specific binding of phage clone to the parental cells” value in series [2] (parental BaF3) was “extremely minimal”. The “promotion of internalization of protocells by CRLF2-positive cells” value in series [4] is given as “does not promote rapid internalization”.

Consider “RRRRRRRR [R8, 8 mer polyarginine that promotes internalization, reference compound]”, for which, in series [4], the “promotion of internalization of protocells by CRLF2-positive cells” value is on record as “promoted this selective internalization in a density-dependent manner”.

As for “CRLF2-targeted protocells conjugated with the CRLF2-targeting peptide TDAHASV”, the fold higher affinity in series [5] is 1000 fold.

In the case of TDAHASV (modifications not checked) [M13 filamentous phage displaying the CRLF2-binding peptide TDAHASV], the results for the Kd in series [6] and in series [7] were 27.9 nM and 3 nM, respectively.

B1: VLPs not displaying any additional peptides (other)
chain: ASNFTQFVLVDNGGTGDVTVAPSNFANGVAEWISSNSRSQAYKVTCSVRQSSAQNRKYTIKVEVPKVATQTVGGVELPVAAWRSYLNMELTIPIFATNSDCELIVKAMQGLLKDGNPIPSAIAANSGIY
notes: Control particle; also called nontargeted VLPs; particles not displaying any additional peptides
As for B1, in series [8], the binding result is recorded as “no binding”.
